From patent US12433961B2, “Near-infrared fluorescent probe specifically targeting tumors as well as synthesis method and use thereof” (NANJING NUOYUAN MEDICAL INSTRUMENT CO. LTD, priority 2022, dated 2025)

System: colorectal cancer HT29 subcutaneous tumor
Assay: In-vivo near-infrared fluorescence imaging in subcutaneous HT29 tumor-bearing mouse model
Conditions: HT29 tumor-bearing mice, 30 nmol tail vein, imaging 0 h-48 h
Method: In a subcutaneous tumor HT29 tumor-bearing mouse model, YQ-H (30 nmol, dissolved with 100 μL of normal saline for injection) series probes respectively underwent tail vein administration, fluorescence imaging was respectively photographed at different time points (0 h, 6 h, 12 h, 24 h and 48 h in sequence) by small animal living imaging CCD.

fluorescence signals in liver: strong fluorescence signals in liver
Structure (SMILES): CC1(C)C(/C=C/C2=C(SCCC(=O)NCCCCCC(=O)N(CCS(C)(=O)=O)Cc3ccc(-c4ccc5ncnc(Nc6ccc(OCc7cccc(F)c7)c(Cl)c6)c5c4)o3)C(=C/C=C3/N(CCCS(=O)(=O)O)c4ccc(S(=O)(=O)O)cc4C3(C)C)/CCC2)=[N+](CCCS(=O)(=O)O)c2ccc(S(=O)(=O)[O-])cc21 [YQ-H-03]
tumor targeting effect: a certain tumor targeting effect
